“Also recorded” adds a separate entry of the source.
Assays:
Format in all cases: cell-based, human
[1] = system: neutrophil migration across confluent HMEC monolayers; experiment: TNF-α induced neutrophil migration across HMEC monolayers; conditions: HMECs; 24 h TNF-α 10 or 20 ng/ml; 100 nM, 1 h pretreatment
Procedure: FIG. 4 graphically depicts the effect of PMA on TNF-α induced neutrophil migration.
Turning now to FIG. 5, FIG. 5 graphically depicts the effect of Bryostatin-1 on TNF-α induced neutrophil migration.
Migration Assays: At confluency HMECs were treated for 1 h at 37° C. with Bryostatin-1 (10 nM, 100 nM) in MCDB-131 media or MCDB-131 media alone. Inserts were washed three times with Hank's Balanced Salt Solution (HBSS) (to eliminate drug effects on the neutrophils) and placed in a new plate containing either 500 μL 100 nM LTB4, or HBSS alone for control. 500 μL HBSS was then added to the top well and spiked with 500,000 neutrophils. For TNF-α experiments, HMECs were left in 20 ng/ml TNF-α in MCDB-131 for 24 h TNF-α was removed and HMECs washed three times. […] Migration was stopped by removing the inserts and migration was measured using the myeloperoxidase (MPO) assay.
(§1) Myeloperoxidase Assay: Neutrophil migration was measured using myeloperoxidase (MPO) analysis. […] The supernatant was removed, and MPO activity was measured using TMB/peroxide as chromogen. The reaction was stopped with sulfuric acid and absorbance was read at 450 nm using a microplate reader. […] Data was expressed as “% neutrophil migration”, which allowed cumulative statistical analysis to be done and account for unpreventable batch-to-batch variations.

neutrophil migration = experiment: Neutrophil migration induced by 24 h TNF-α pretreatment combined with a 100 nM LTB4 gradient; conditions: 24 h TNF-α pretreatment and 100 nM LTB4 gradient; data not shown
Procedure: Migration Assays: At confluency HMECs were treated for 1 h at 37° C. with Bryostatin-1 (10 nM, 100 nM) in MCDB-131 media or MCDB-131 media alone. Inserts were washed three times with Hank's Balanced Salt Solution (HBSS) (to eliminate drug effects on the neutrophils) and placed in a new plate containing either 500 μL 100 nM LTB4, or HBSS alone for control. 500 μL HBSS was then added to the top well and spiked with 500,000 neutrophils. For TNF-α experiments, HMECs were left in 20 ng/ml TNF-α in MCDB-131 for 24 h TNF-α was removed and HMECs washed three times. HMECs were treated for 1 h with Bryostatin-1 in endothelial growth medium (EGM) (10 nM, 100 nM). The drug was removed, and cells were washed three times. […] Neutrophils were allowed to migrate for 3 h at 37° C. Migration was stopped by removing the inserts and migration was measured using the myeloperoxidase (MPO) assay.
as §1

HMEC = experiment: Alamar blue endothelial viability assay, HMEC; conditions: single 1 h 100 nM treatment; 1, 24, 48 h
Procedure: Viability Assay. The Alamar blue assay was used to determine endothelial viability after pharmacological intervention. Alamar blue contains a REDOX indicator that results in a color change upon chemical reduction by cellular metabolic activity. Endothelial cells were treated with Bryostatin-1 (100 nM) for 1 h and washed three times with HBSS. Alamar blue (10%) in media was added for 2.5 h at T=0, 24, or 48 hours after drug treatment and the ratio of absorbances (570-600 nm) was measured to determine metabolic activity.

| SMILES | effect on TNF-α induced neutrophil TEM (Type II migration) [1] | effect on migration induced by TNF-α pretreatment plus LTB4 gradient (neutrophil migration) | HMEC viability (HMEC) |
| --- | --- | --- | --- |
| CCCCCCCCCCCCCC(=O)O[C@@H]1[C@@H](C)[C@@]2(O)[C@@H](C=C(CO)C[C@]3(O)C(=O)C(C)=C[C@@H]23)[C@@H]2C(C)(C)[C@]12OC(C)=O [PMA, phorbol myristate acetate] | attenuated Type II migration; also recorded: totally attenuated | reduced migration | no effect |
| CCC/C=C/C=C/C(=O)O[C@H]1/C(=C/C(=O)OC)C[C@H]2C[C@H]([C@@H](C)O)OC(=O)C[C@H](O)C[C@@H]3C[C@H](OC(C)=O)C(C)(C)[C@](O)(C[C@@H]4C/C(=C/C(=O)OC)C[C@H](/C=C/C(C)(C)[C@]1(O)O2)O4)O3 [Bryostatin-1] | attenuated Type II migration; also recorded: totally attenuated | reduced migration | no effect |

From patent US20230139328A1, “DOSAGE FORMS FOR IMPROVING ORGAN TRANSPLANTATION, GRAFT VERSUS HOST DISEASE AND STEM CELLS TRANSPLANTS” (Aphios Corporation, priority 2020, published 2023)
